Assays:
[1] = target: T1, Cow milk Xanthine Oxidase (Bos taurus, UniProt P80457); assay: Xanthine oxidase inhibition, in vitro (oxidation of xanthine, absorbance at 290 nm); assay type: biochemical; conditions: xanthine 250 μM, 50 mM phosphate buffer pH 7.5, 30° C., 10 minutes
T1 construct: Cow milk Xanthine Oxidase (Roche); purchased Roche; host or cells: cow milk (natural source)
Experimental: The xanthine oxidase inhibiting action (in vitro test) of the compound of the invention was confirmed by measuring inhibition of oxidation of xanthine by xanthine oxidase, as described in Example 50. As is clear from Tables 11 and 12, the compounds of the invention show excellent xanthine oxidase inhibiting action.
Pharmacological Experiment 1 (In Vitro Measuring Method)
1. Preparation of Test Sample
The test compound was dissolved in dimethylsulfoxide and diluted with 50 mM phosphate buffer (pH 7.5), to give a solution of a predetermined concentration.
125 μL of each of the solutions of the test compound having different concentrations was added to 1 mL of a solution of Xanthine (SIGMA, 250 μM) in the 50 mM phosphor buffer (pH 7.5). The mixture was then pre-incubated at 30° C. for 5 min. Subsequently, to the pre-incubated mixture was added 125 μL of Cow milk Xanthine Oxidase (Roche) diluted with the 50 mM phosphate buffer (pH 7.5) to 70 mU/mL, and the mixture was subjected to reaction at 30° C. for 10 minutes. Then, 1N hydrochloric acid, (200 μL) was added to the reaction mixture to terminate the reaction. Subsequently, absorbance at OD 290 nm was measured by means of a spectrophotometer (Shimadzu UV-160A)., to obtain a inhibition ratio. The measured inhibition ration was used to obtain […]
The inhibition ratio was calculated according to the following formula: Inhibition ratio (%)=[1−(B−C)/(A−C)]×100 • A: absorbance of control • B: absorbance measured on a sample containing test compound • C: absorbance of blank (Test Results)

T1 sequence (P80457 whole entry): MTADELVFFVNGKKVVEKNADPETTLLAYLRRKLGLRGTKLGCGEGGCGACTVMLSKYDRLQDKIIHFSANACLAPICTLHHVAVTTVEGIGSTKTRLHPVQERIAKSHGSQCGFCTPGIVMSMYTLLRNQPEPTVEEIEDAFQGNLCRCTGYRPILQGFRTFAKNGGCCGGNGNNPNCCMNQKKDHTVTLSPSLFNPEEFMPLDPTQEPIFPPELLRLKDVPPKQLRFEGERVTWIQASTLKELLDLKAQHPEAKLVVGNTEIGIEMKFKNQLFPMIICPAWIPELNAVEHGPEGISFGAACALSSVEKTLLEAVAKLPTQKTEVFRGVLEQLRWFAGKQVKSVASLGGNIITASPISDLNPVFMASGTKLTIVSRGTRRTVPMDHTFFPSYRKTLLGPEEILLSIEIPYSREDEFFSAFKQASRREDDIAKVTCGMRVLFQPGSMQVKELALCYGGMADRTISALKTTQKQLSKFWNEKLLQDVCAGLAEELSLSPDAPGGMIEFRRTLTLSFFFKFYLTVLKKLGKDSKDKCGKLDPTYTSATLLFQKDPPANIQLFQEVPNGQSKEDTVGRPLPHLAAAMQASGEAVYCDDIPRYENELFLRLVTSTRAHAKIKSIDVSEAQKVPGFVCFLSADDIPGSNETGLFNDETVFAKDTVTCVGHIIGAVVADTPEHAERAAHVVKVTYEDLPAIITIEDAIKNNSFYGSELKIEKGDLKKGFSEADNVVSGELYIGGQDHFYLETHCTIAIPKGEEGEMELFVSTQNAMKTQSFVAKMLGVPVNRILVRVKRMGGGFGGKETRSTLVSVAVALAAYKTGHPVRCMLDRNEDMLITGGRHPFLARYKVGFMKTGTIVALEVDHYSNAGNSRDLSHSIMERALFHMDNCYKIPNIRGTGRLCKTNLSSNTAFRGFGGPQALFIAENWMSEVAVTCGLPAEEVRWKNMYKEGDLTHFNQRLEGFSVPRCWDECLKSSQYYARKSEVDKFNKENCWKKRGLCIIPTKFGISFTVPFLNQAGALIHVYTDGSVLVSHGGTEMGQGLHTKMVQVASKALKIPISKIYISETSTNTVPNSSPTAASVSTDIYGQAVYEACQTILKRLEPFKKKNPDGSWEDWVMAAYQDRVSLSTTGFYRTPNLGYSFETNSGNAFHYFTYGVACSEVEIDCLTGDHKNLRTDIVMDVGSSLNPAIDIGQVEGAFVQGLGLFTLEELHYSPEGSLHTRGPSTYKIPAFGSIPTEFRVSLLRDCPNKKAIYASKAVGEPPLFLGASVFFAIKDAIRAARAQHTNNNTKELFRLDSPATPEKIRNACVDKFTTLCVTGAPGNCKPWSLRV

For O=[N+]([O-])c1cc(-c2nc3c(O)ncnc3s2)ccc1Oc1ccccc1Cl [Example 18, 2-[4-(2-Chlorophenoxy)-3-nitrophenyl]-4-hydroxythiazolo[5,4-d]pyrimidine], the melting point was 283 to 288 °C (dec.) and the IC50 [1] was 8 nM.
With O=[N+]([O-])c1cc(-c2nc3c(O)ncnc3s2)ccc1Oc1cccc(F)c1 [Example 20, 2-[4-(3-Fluorophenoxy)-3-nitrophenyl]-4-hydroxythiazolo[5,4-d]pyrimidine] the melting point was 279 to 281 °C (dec.) and the IC50 [1] was 10.2 nM.
With O=[N+]([O-])c1cc(-c2nc3c(O)ncnc3s2)ccc1Oc1cccnc1 [Example 32, 4-Hydroxy-2-[3-nitro-4-(3-pyridyloxy)-phenyl]thiazolo[5,4-d]pyrimidine] the melting point was 276 to 280 °C (dec.) and the IC50 [1] was 9.2 nM.

From patent publication US20070293512A1, “Condensed Pyrimidine Deriviative and Xanthine Oxidase Inhibitor” (priority 2004, published 2007)
